20 molecules from patent US7132417B2, “2-phenyl-1-[4-(2-aminoethoxy)-benzyl]-indoles as estrogenic agents” (Wyeth, priority 1996, dated 2006) can be followed below.

Assay [1] deals with T1, estrogen receptor (Homo sapiens, UniProt P03372).
T1 sequence (P03372 1-595): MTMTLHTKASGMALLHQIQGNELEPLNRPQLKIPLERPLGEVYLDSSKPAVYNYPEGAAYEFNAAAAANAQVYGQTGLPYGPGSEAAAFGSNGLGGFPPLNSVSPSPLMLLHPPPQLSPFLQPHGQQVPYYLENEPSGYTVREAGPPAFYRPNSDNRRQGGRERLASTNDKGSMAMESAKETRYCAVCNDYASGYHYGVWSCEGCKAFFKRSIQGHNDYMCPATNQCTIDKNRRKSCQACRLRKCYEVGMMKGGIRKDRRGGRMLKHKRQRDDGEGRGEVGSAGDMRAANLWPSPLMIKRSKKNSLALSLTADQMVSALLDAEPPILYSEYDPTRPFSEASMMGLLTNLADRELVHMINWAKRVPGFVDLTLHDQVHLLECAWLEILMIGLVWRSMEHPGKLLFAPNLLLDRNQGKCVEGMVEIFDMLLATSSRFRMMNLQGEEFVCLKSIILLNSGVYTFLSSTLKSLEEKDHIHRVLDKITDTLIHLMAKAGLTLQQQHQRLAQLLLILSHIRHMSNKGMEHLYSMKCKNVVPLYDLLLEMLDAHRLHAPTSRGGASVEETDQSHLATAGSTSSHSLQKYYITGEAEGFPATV
The experiment in a line: In vitro estrogen receptor binding assay ([3H]-17β-estradiol competition). Details: expressed in transfected cells; host or cells: CHO cells (100,000 g cytosol). To be noted: read-out: Receptor Binding IC50's. On the procedure:
In Vitro Estrogen Receptor Binding Assay
CHO cells overexpressing the estrogen receptor were grown in 150 mm^2 dishes in DMEM+10% dextran coated charcoal, stripped fetal bovine serum. The plates were washed twice with PBS and once with 10 mM Tris-HCl, pH 7.4, 1 mM EDTA. Cells were harvested by scraping the surface and then the cell suspension was placed on ice. Cells were disrupted with a hand-held motorized tissue grinder using two, 10-second bursts. […] The cytosol was then frozen and stored at −80° C. Protein concentration of the cytosol was estimated using the BCA assay with reference standard protein.
100 uG/100 uL of the receptor preparation was aliquoted per well. […] The plate was incubated at room temperature for 2.5 h. […] 200 uL of the supernatant solution was then removed for scintillation counting. Samples were counted to 2% or 10 minutes, whichever occurs first. […] Also, wells containing radioactivity but no cytosol were processed with charcoal to estimate unremovable DPM of [^3H]
Counts per minute (CPM) of radioactivity were automatically converted to disintegrated per minute (DPM) by the Beckman LS 7500 Scintillation Counter using a set of quenched standards to generate a H No. for each sample.
For the generation of IC50 curves, % binding is plotted vs compound. […] For a description of these methods, see Hulme, E. C., ed. […] Receptor-Ligand Interactions: A Practical Approach. IRL Press, New York. (see especially chapter 8).

For assay [2], the target named is T1, estrogen receptor. The experiment in a line: 2X VIT ERE infection (luciferase) assay. It is filed as cell-based. Also noted: expressed in transfected cells; host or cells: Chinese Hamster Ovary cells (CHO), stably transfected. To be noted: for Infection Luciferase Activity 1 uM + 17β estradiol: 1 uM compound + 1 nM 17β-estradiol (test for estrogen antagonism); for Infection Luciferase Activity 1 uM: 1 uM compound, percentage of activity as compared to 17β-estradiol. On the procedure: Method No. 18 2X VIT ERE Infection Assay Cell Maintenance and Treatment
Chinese Hamster Ovary cells (CHO) which had been stably transfected with the human estrogen receptor were maintained in DMEM+10% fetal bovine serum (FBS). 48 h prior to treatment the growth medium was replaced with DMEM lacking phenol red +10% dextran coated charcoal stripped FBS (treatment medium). Cells were plated at a density of 5000 cells/well in 96-well plates containing 200 µL of medium/well.
Reporter DNA (Promega plasmid pGL2 containing two tandem copies of the vitellogenin ERE in front of the minimal thymidine kinase promoter driving the luciferase gene) was combined with the B-galactosidase expression plasmid pCH110 (Pharmacia) and carrier DNA (pTZ18U) in the following ratio:
20 uL of this mixture was added to each well of cells and remained on the cells for 16 h. […] Each treatment condition was performed on 8 wells (n=8) which were incubated for 24 h prior to the luciferase assay.
After removing the PBS, 25 uL of Promega lysis buffer was added to each well and allowed to stand at room temperature for 15 min, followed by 15 min at −80° C. and 15 min at 37° C. 20 uL of lysate was transferred to an opaque 96 well plate for luciferase activity evaluation and the remaining lysate (5 uL) was used for the B-galactosidase activity evaluation (normalize transfection). The luciferan substrate (Promega) was added in 100 uL aliquots to each well automatically by the luminometer and the light produced (relative light units) was read 10 seconds after addition.
To the remaining 5 uL of lysate 45 uL of PBS was added. Then 50 uL of Promega B-galactosidase 2× assay buffer was added, mixed well and incubated at 37° C. for 1 hour. A plate containing a standard curve (0.1 to 1.5 milliunits in triplicate) was set up for each experimental run. The plates were analyzed on a Molecular Devices spectrophotometric plate reader at 410 nm. The optical densities for the unknown were converted to milliunits of activity by mathematical extrapolation from the standard curve.
The luciferase data was generated as relative light units (RLUs) accumulated during a 10 second measurement and automatically transferred to a JMP (SAS Inc) file where background RLUs were subtracted. The B-galactosidase values were automatically imported into the file and these values were divided into the RLUs to normalize the data. The mean and standard deviations were determined from a n=8 for each treatment. […] These techniques are described by Tzukerman, M. T., Esty, A., Santiso-Mere, D., Danielian, P., Parker, M. G., Stein, R. B., Pike, J. W. and McDonnel, D. P. (1994).

Counter-ions that a name gives are not always drawn.

As to `Cc1c(-c2ccc(O)cc2)n(Cc2ccc(OCCCN3CCCCC3)cc2)c2ccc(O)cc12` [Example No. 166, 2-(4-Hydroxy-phenyl)-3-methyl-1-{4-[3-(piperidin-1-yl)-propoxy]-benzyl}-1H-indol-5-ol], the IC50 at estrogen receptor [1] is 99 nM.
In the case of `Cc1c(-c2ccc(O)cc2)n(Cc2ccc(OCCN3CCCCC3)cc2)c2ccccc12` [compound 86, 4-{3-Methyl-1-[4-(2-piperidin-1-yl-ethoxy)-benzyl]-1H-indol-2-yl}-phenol hydrochloride], on estrogen receptor [2], the “Infection Luciferase Activity 1 uM + 17β estradiol” value was determined as 2% and the “Infection Luciferase Activity 1 uM” value is −5%.
Turning to `COc1ccc2c(c1)c(C)c(-c1ccc(O)cc1)n2Cc1ccc(OCCN2CCCCC2)cc1` [compound 88, 4-{5-Methoxy-3-methyl-1-{4-[2-(piperidin-1-yl)-ethoxy]-benzyl}-1H-indol-2-yl}-phenol], on estrogen receptor [2], the “Infection Luciferase Activity 1 uM + 17β estradiol” value was found to be 44% and the “Infection Luciferase Activity 1 uM” value stood at 4%.
Consider `COc1ccc(-c2c(C)c3cc(O)ccc3n2Cc2ccc(OCCN3CCCCC3)cc2)cc1` [compound 89, 2-(4-methoxy-phenyl)-3-methyl-1-{4-[2-(piperidin-1-yl)-ethoxy]-benzyl}-1H-indol-5-ol], for which, at estrogen receptor [2], the “Infection Luciferase Activity 1 uM + 17β estradiol” value is reported as 18% and the “Infection Luciferase Activity 1 uM” value is on record as 16%.
The like results for `COc1ccc(-c2c(C)c3cc(OC)ccc3n2Cc2ccc(OCCN3CCCCC3)cc2)cc1` [compound 90, 5-Methoxy-2-(4-methoxy-phenyl)-3-methyl-1-[4-(2-piperidin-1-yl-ethoxy)-benzyl]-1H-indole] were, in that order, 58% and 3%.
`CCOc1ccc(-c2c(C)c3cc(O)ccc3n2Cc2ccc(OCCN3CCCCC3)cc2)cc1` [compound 92, 2-(4-Ethoxy-phenyl)-3-methyl-1-[4-(2-piperidin-1-yl-ethoxy)-benzyl]-1H-indol-5-ol]: at estrogen receptor [2], the “Infection Luciferase Activity 1 uM + 17β estradiol” value is recorded as −2% and the “Infection Luciferase Activity 1 uM” value is on record as −4%.
Take `CCOc1ccc(-c2c(C)c3cc(O)ccc3n2Cc2ccc(OCCN3CCCCCC3)cc2)cc1` [compound 93, 1-[4-(2-Azepan-1-yl-ethoxy)-benzyl]-2-(4-ethoxy-phenyl)-3-methyl-1H-indol-5-ol]: at estrogen receptor [2], the “Infection Luciferase Activity 1 uM + 17β estradiol” value was −2% and the “Infection Luciferase Activity 1 uM” value was −3%.
For `Cc1c(-c2ccc(O)cc2)n(Cc2ccc(OCCN3CCCCC3)cc2)c2ccc(F)cc12` [compound 94, 4-{5-Fluoro-3-methyl-1-[4-(2-piperidin-1-yl-ethoxy)-benzyl]-1H-indol-2-yl}-phenol], on estrogen receptor [2], the “Infection Luciferase Activity 1 uM + 17β estradiol” value stood at 15% and the “Infection Luciferase Activity 1 uM” value is reported as −5%.
Turning to `Cc1c(-c2ccc(O)cc2)n(Cc2ccc(OCCN3CCCC3)cc2)c2ccc(O)cc12` [compound 96, 2-(4-Hydroxy-phenyl)-3-methyl-1-[4-(2-pyrollidin-1-yl-ethoxy)-benzyl]-1H-indol-5-ol], on estrogen receptor [2], the “Infection Luciferase Activity 1 uM + 17β estradiol” value stood at 8% and the “Infection Luciferase Activity 1 uM” value is listed as 12%.
On to `CCCCN(C)CCOc1ccc(Cn2c(-c3ccc(O)cc3)c(C)c3cc(O)ccc32)cc1` [compound 105, 1-{4-[2-(Butyl-methyl-amino)-ethoxy]-benzyl}-2-(4-hydroxy-phenyl)-3-methyl-1H-indol-5-ol], for which, at estrogen receptor [1], the IC50 came out at 28 nM.
The same measure, in the same setting: the result for `Cc1c(-c2ccc(O)cc2)n(Cc2ccc(OCCN3CCCC(C)C3)cc2)c2ccc(O)cc12` (centres unmarked) [compound 109, 2-(4-Hydroxy-phenyl)-3-methyl-1-{4-[2-(3-methyl-piperdin-1-yl)-ethoxy]-benzyl}-1H-indol-5-ol] reads 170 nM.
Regarding `Cc1c(-c2ccc(F)cc2)n(Cc2ccc(OCCN3CCCCC3)cc2)c2ccc(O)cc12` [compound 116, 2-(4-Fluoro-phenyl)-3-methyl-1-[4-(2-piperidine-1-yl-ethoxy)-benzyl]-1H-indol-5-ol], at estrogen receptor [2], the “Infection Luciferase Activity 1 uM + 17β estradiol” value was determined as 1% and the “Infection Luciferase Activity 1 uM” value is given as −1%.
The like results for `Cc1c(-c2ccc(F)cc2)n(Cc2ccc(OCCN3CCCCCC3)cc2)c2ccc(O)cc12` [compound 117, 1-[4-(2-Azepan-1-yl-ethoxy)-benzyl]-2-(4-fluoro-phenyl)-3-methyl-1H-indol-5-ol] were, in that order, 1% and 0%.
As to `Cc1c(-c2ccc3c(c2)OCO3)n(Cc2ccc(OCCN3CCCCC3)cc2)c2ccc(O)cc12` [compound 119, 2-Benzo[1,3]dioxol-5-yl-3-methyl-1-[4-(2-piperidin-1-yl-ethoxy)-benzyl]-1H-indol-5-ol], at estrogen receptor [2], the “Infection Luciferase Activity 1 uM + 17β estradiol” value is recorded as −1% and the “Infection Luciferase Activity 1 uM” value is recorded as −1%.
For `Cc1c(-c2ccc(C(F)(F)F)cc2)n(Cc2ccc(OCCN3CCCCC3)cc2)c2ccc(O)cc12` [compound 123, 3-Methyl-1-[4-(2-piperidin-1-yl-ethoxy)-benzyl]-2-(4-trifluoromethyl-phenyl)-1H-indol-5-ol], the IC50 on estrogen receptor [1] was 170 nM.
With `COc1ccc(-c2c(C)c3cc(O)ccc3n2Cc2ccc(OCCN3CCCCC3)cc2)c(OC)c1` [compound 126, 2-(2,4-Dimethoxy-phenyl)-3-methyl-1-[4-(2-piperidin-1-yl-ethoxy)-benzyl]-1H-indol-5-ol], at estrogen receptor [2], the “Infection Luciferase Activity 1 uM + 17β estradiol” value is reported as 0% and the “Infection Luciferase Activity 1 uM” value is on record as −1%.
As to `Cc1c(-c2cccc(O)c2)n(Cc2ccc(OCCN3CCCCC3)cc2)c2ccc(O)cc12` [compound 127, 2-(3-Hydroxy-phenyl)-3-methyl-1-[4-(2-piperidin-1-yl-ethoxy)-benzyl]-1H-indol-5-ol], the IC50 on estrogen receptor [1] amounted to 19 nM.
Regarding `Cc1c(-c2ccc(O)c(F)c2)n(Cc2ccc(OCCN3CCCCC3)cc2)c2ccc(O)cc12` [compound 129, 2-(3-Fluoro-4-hydroxy-phenyl)-3-methyl-1-[4-(2-piperidin-1-yl-ethoxy)-benzyl]-1H-indol-5-ol], on estrogen receptor [1], the IC50 came out at 5.5 nM.
As for `Cc1c(-c2ccc(O)c(F)c2)n(Cc2ccc(OCCN3CCCCCC3)cc2)c2ccc(O)cc12` [compound 130, 2-(3-Fluoro-4-hydroxy-phenyl)-3-methyl-1-[4-(azepan-1-yl-ethoxy)-benzyl]-1H-indol-5-ol], the IC50 at estrogen receptor [1] stood at 13 nM.
Regarding `COc1cccc(-c2c(C)c3cc(O)ccc3n2Cc2ccc(OCCN3CCCCC3)cc2)c1` [compound 131, 2-(3-Methoxy-phenyl)-3-methyl-1-[4-(2-piperidin-1-yl-ethoxy)-benzyl]-1H-indole-5-ol], the IC50 at estrogen receptor [1] is 120 nM.
